Source: US12613234B2, “Structural-profiling of analytes by nanopore trapping” (NANJING UNIVERSITY, priority 2021, dated 2026)
“And” between values parts separate entries of the source, which are not always exact repeats. Identical values can stand only once. Like-named read-outs stand apart in the source and are kept apart here.

How the values were obtained:
wtCaM = wtCaM (Homo sapiens, UniProt P0DP23); assay: Binding capacity of metal ions to wtCaM monitored by MspA nanopore trapping
M2 MspA = tested on: M2 MspA; set-up: species or system Mycobacterium smegmatis; settings: for mean dwell time (τoff), mean ± std / mean interevent duration time (τon), mean ± std: N=3
[1] = […] KCl/1.0M CaCl2, +100 mV, listed as LYSOZYME
[2] = […] KCl/[…] KCl, +100 mV, listed as LYSOZYME
[3] = […] KCl/[…] KCl, +100 mV, listed as APO-MYOGLOBIN

Molecule: [Ba+2] [Ba^2+]
- Proportion of Apo-wtCaM events (wtCaM): 95.6 ± 2.9%
- Proportion of Holo-wtCaM events (binding capacity) (wtCaM): 4.4% and 4.4 ± 2.9%
- binding capacity to wtCaM, in words (wtCaM): poor binding capacity
- ΔI/I0 of Apo-wtCaM events (wtCaM): 51.6 ± 0.6%
- ΔI/I0 of Holo-wtCaM events (wtCaM): 86.9 ± 1.0%

Molecule: [Ca+2] [Ca^2+]
- ion concentration that fully activates wtCaM (wtCaM; 0.3 μM wtCaM): 0.6 mM
- Proportion of Apo-wtCaM events (wtCaM; 2 mM ion, 0.6 μM wtCaM): 21.2 ± 3.1%
- Proportion of Holo-wtCaM events (binding capacity) (wtCaM; 2 mM ion, 0.6 μM wtCaM): 54% and 54.1 ± 4.8%
- Proportion of Transient States events (wtCaM; 2 mM ion, 0.6 μM wtCaM): 24.8 ± 2.7%
- ΔI/I0 of Apo-wtCaM events (wtCaM; 2 mM ion, 0.6 μM wtCaM): 56.8±1.1%
- ΔI/I0 of Holo-wtCaM events (wtCaM; 2 mM ion, 0.6 μM wtCaM): 90.4±0.2%
- ΔI/I0 of Transient States events (wtCaM; 2 mM ion, 0.6 μM wtCaM): 75.0±2.1%
- binding capacity to wtCaM, in words (wtCaM; nanopore trapping): strong binding affinity

Molecule: [Mg+2] [Mg^2+]
- Proportion of Apo-wtCaM events (wtCaM; 2 mM ion, 0.6 μM wtCaM): 96.0 ± 1.7%
- Proportion of Holo-wtCaM events (binding capacity) (wtCaM; 2 mM ion, 0.6 μM wtCaM): 4.0% and 4.0 ± 1.7%
- ΔI/I0 of Apo-wtCaM events (wtCaM; 2 mM ion, 0.6 μM wtCaM): 52.6 ± 0.4%
- ΔI/I0 of Holo-wtCaM events (wtCaM; 2 mM ion, 0.6 μM wtCaM): 88.8 ± 1.1%
- binding capacity to wtCaM, in words (wtCaM; nanopore trapping): poor binding capacity

Molecule: [Pb+2] [Pb^2+]
- Proportion of Holo-wtCaM events (binding capacity) (wtCaM): 62.0±3.1%
- Proportion of Transient States events (wtCaM): 38.0 ± 3.1%
- binding capacity to wtCaM, in words (wtCaM): even stronger than that of Ca^2+
- ΔI/I0 of Holo-wtCaM events (wtCaM): 90.6 ± 0.7%
- ΔI/I0 of Transient States events (wtCaM): 77.91 ± 0.13%

Molecule: [Sr+2] [Sr^2+]
- Proportion of Apo-wtCaM events (wtCaM; 2 mM ion, 0.6 μM wtCaM): 73.1 ± 1.4%
- Proportion of Holo-wtCaM events (binding capacity) (wtCaM; 2 mM ion, 0.6 μM wtCaM): 14.0±2.4%
- Proportion of Transient States events (wtCaM; 2 mM ion, 0.6 μM wtCaM): 12.6 ± 0.4%
- ΔI/I0 of Apo-wtCaM events (wtCaM; 2 mM ion, 0.6 μM wtCaM): 54.0 ± 0.5%
- ΔI/I0 of Holo-wtCaM events (wtCaM; 2 mM ion, 0.6 μM wtCaM): 90.22 ± 0.16%
- ΔI/I0 of Transient States events (wtCaM; 2 mM ion, 0.6 μM wtCaM): 75.7 ± 1.5%
- binding capacity to wtCaM, in words (wtCaM; nanopore trapping): slightly better binding capacity to wtCaM than that of Mg^2+ or Ba^2+

Molecule: [Tb+3] [Tb^3+]
- ion concentration that fully activates apo-wtCaM (wtCaM; 0.3 μM apo-wtCaM): 5 µM
- concentration regime in which Tb-wtCaM events were observed (wtCaM; 0.3 μM wtCaM): 0.05 to 120 µM
- concentration regime in which the pre-aggregated state was observed (wtCaM; 0.3 μM wtCaM): 15 to 200 µM
- ion concentration with complete disappearance of events (aggregation of wtCaM) (wtCaM; 0.3 μM wtCaM): 500 µM
- binding capacity to wtCaM, in words (wtCaM; nanopore trapping): stronger than that of Ca^2+

Molecule: lysozyme: lysozyme from chicken egg white, representative basic protein
- 1/τon (M2 MspA; +60 mV, […] KCl/1.0M CaCl2): (1.0 ± 0.2) × 10^−2 MS^−1
- τoff (M2 MspA; +60 mV, […] KCl/1.0M CaCl2): 35.5 ± 0.9 MS
- 1/τon (M2 MspA; +80 mV, […] KCl/1.0M CaCl2): (1.4 ± 0.4) × 10^−2 MS^−1
- τoff (M2 MspA; +80 mV, […] KCl/1.0M CaCl2): 47.8 ± 6.7 MS
- 1/τon (M2 MspA; +100 mV, […] KCl/1.0M CaCl2): (1.8 ± 0.2) × 10^−2 MS^−1
- τoff (M2 MspA; +100 mV, […] KCl/1.0M CaCl2): 47.3 ± 3.5 MS
- 1/τon (M2 MspA; +120 mV, […] KCl/1.0M CaCl2): (1.8 ± 0.3) × 10^−2 MS^−1
- τoff (M2 MspA; +120 mV, […] KCl/1.0M CaCl2): 38.8 ± 8.9 MS
- mean dwell time (τoff), mean ± std (M2 MspA; […] KCl/1.0M CaCl2, +100 mV): 47.3±3.5 MS
- mean interevent duration time (τon), mean ± std (M2 MspA; […] KCl/1.0M CaCl2, +100 mV): 38.0±11.0 MS
- mean dwell time (τoff), mean ± std (M2 MspA; [1]): 47.3 ± 3.5 MS
- mean interevent duration time (τon), mean ± std (M2 MspA; [1]): 38.0 ± 11.0 MS
- mean dwell time (τoff), mean ± std (M2 MspA; […] KCl/[…] KCl, +100 mV): 5.4±0.2 MS
- mean interevent duration time (τon), mean ± std (M2 MspA; […] KCl/[…] KCl, +100 mV): 460.7±51.2 MS
- mean dwell time (τoff), mean ± std (M2 MspA; [2]): 5.4 ± 0.2 MS
- mean interevent duration time (τon), mean ± std (M2 MspA; [2]): 460.7 ± 51.2 MS
- 1/τon (M2 MspA; concentration 0.21 (MM), +100 mV): (6.4 ± 2.6) × 10^−3 MS^−1
- 1/τon (M2 MspA; concentration 0.42 (MM), +100 mV): (2.8 ± 0.8) × 10^−2 MS^−1
- 1/τon (M2 MspA; concentration 0.63 (MM), +100 mV): (4.2 ± 1.2) × 10^−2 MS^−1
- 1/τon (M2 MspA; concentration 0.83 (MM), +100 mV): (5.5 ± 0.7) × 10^−2 MS^−1

B1: apo-myoglobin: heme-free myoglobin from equine skeletal muscle (protein, UniProt P68082 2-154, looked up)
Myoglobin: GLSDGEWQQVLNVWGKVEADIAGHGQEVLIRLFTGHPETLEKFDKFKHLKTEAEMKASEDLKKHGTVVLTALGGILKKKGHHEAELKPLAQSHATKHKIPIKYLEFISDAIIHVLHSKHPGDFGADAQGAMTKALELFRNDIAAKYKELGFQG
modifications: heme-free apo form
notes: heme-free myoglobin from equine skeletal muscle
- 1/τon (M2 MspA; +60 mV, […] KCl/1.0M CaCl2): (1.0 ± 0.3) × 10^−3 MS^−1
- τoff (M2 MspA; +60 mV, […] KCl/1.0M CaCl2): 99.3 ± 20.2 MS
- 1/τon (M2 MspA; +80 mV, […] KCl/1.0M CaCl2): (2.0 ± 0.5) × 10^−3 MS^−1
- τoff (M2 MspA; +80 mV, […] KCl/1.0M CaCl2): 317.5 ± 18.3 MS
- 1/τon (M2 MspA; +100 mV, […] KCl/1.0M CaCl2): (2.8 ± 0.3) × 10^−3 MS^−1
- τoff (M2 MspA; +100 mV, […] KCl/1.0M CaCl2): 531.0 ± 27.5 MS
- 1/τon (M2 MspA; +120 mV, […] KCl/1.0M CaCl2): (4.5 ± 0.6) × 10^−3 MS^−1
- τoff (M2 MspA; +120 mV, […] KCl/1.0M CaCl2): 522.0 ± 15.0 MS
- mean dwell time (τoff), mean ± std (M2 MspA; […] KCl/1.0M CaCl2, +100 mV): 531.0±27.5 MS
- mean interevent duration time (τon), mean ± std (M2 MspA; […] KCl/1.0M CaCl2, +100 mV): 365.1 ± 27.9 MS
- mean dwell time (τoff), mean ± std (M2 MspA; […] KCl/1.0M CaCl2, +100 mV, listed as APO-MYOGLOBIN): 531.0 ± 27.5 MS
- mean dwell time (τoff), mean ± std (M2 MspA; […] KCl/[…] KCl, +100 mV): 7.3±1.3 MS
- mean dwell time (τoff), mean ± std (M2 MspA; [3]): 7.3 ± 1.3 MS
- mean interevent duration time (τon), mean ± std (M2 MspA; [3]): 3640.4 ± 633.6 MS
- 1/τon (M2 MspA; concentration 0.04 (MM), +100 mV): (4.4 ± 0.5) × 10^−4 MS^−1
- 1/τon (M2 MspA; concentration 0.07 (MM), +100 mV): (9.9 ± 0.9) × 10^−3 MS^−1
- 1/τon (M2 MspA; concentration 0.11 (MM), +100 mV): (2.1 ± 0.2) × 10^−3 MS^−1
- 1/τon (M2 MspA; concentration 0.14 (MM), +100 mV): (2.8 ± 0.2) × 10^−3 MS^−1
